Measurements reported in paper PMC7294809, “Discovery of an Allosteric Binding Site in Kinetoplastid Methionyl-tRNA Synthetase” (ACS Infectious Diseases, 2020).
In brackets after ≈: the same amount, converted by molar mass. Marks after values point to notes of the source that are not given here.

Legend:
[1] = CHI LogD measurement; format: physicochemical; details: chromatographic hydrophobicity index
Experimental: CHI LogD measurements were performed as described elsewhere.[29] cLogP measurements were calculated using StarDrop (Optibrium).

[2] = molecular target: T1, TcMetRS (Trypanosoma cruzi, UniProt Q4D6H2); assay: TcMetRS mode of inhibition studies; format: biochemical; details: for Ki / h (inhibitor Hill slope) / β (fraction of activity remaining) / Vmax / n (substrate Hill slope) / Ks: TcMetRS; for Ki: fit to eq 7, ± SE of fit; for Vmax: global fit parameter; for n (substrate Hill slope) / Ks: global fit; for Ks: substrate dissociation constant
From the text: It was therefore feasible to perform TcMetRS mode inhibition studies with this compound. These studies, carried out as previously described for LdMetRS, confirm a best fit to the same partial, cooperative, noncompetitive inhibition model (eq 7; Supporting Information Figure 6 and Table 4).
(§1) Using GraFit v6.0 (Erithacus Software), each data set was globally fitted to standard competitive, uncompetitive, and noncompetitive inhibition models (eqs 3–5).
(§2) Equation 5 (noncompetitive inhibition model): [drawing 5] 5 On the basis of poor data fits to the above models, partial inhibition and cooperativity parameters were introduced into the uncompetitive and noncompetitive models as previously described by Skovpen et al.[30],[31] Mode of inhibition data were globally fitted to these modified equations (eqs 6 and 7).
(§3) Equation 7 (cooperative, noncompetitive, partial inhibition model): [drawing 7] 7 v is the velocity, Vmax is the maximum velocity, [S] is the substrate concentration, [I] is the inhibitor concentration, Ki is the inhibitor constant, Ks is the substrate dissociation constant, n is the substrate Hill slope, h is the inhibitor Hill slope, and β is the proportionality constant (fraction of activity remaining when the enzyme is fully saturated with inhibitor).
(§4) If more than one model appeared possible, then data were fitted to both and examined for significance using the F-test function in GraFit.

[3] = molecular target: T1, TcMetRS; assay: TcMetRS BIOMOL Green biochemical assay, 10-point dose response
[4] = Aqueous solubility, filtration-based method; format: physicochemical; details: aqueous buffer, kinetic from dmso stock; phosphate-buffered saline pH 7.4, 24 h, 25 °C
Experimental: Solubility was assessed using a filtration-based method. Test compounds were dissolved in DMSO to give 10 mM solutions. Five microliters of the 10 mM solution was added to 195 μL of phosphate-buffered saline at pH 7.4 and mixed for 24 h (rotary mixing, 900 rpm, 25 °C) excluding light. After mixing, the samples were filtered to remove any undissolved material using a Millipore Multiscreen HTS filter. The filtrate was analyzed for dissolved drug compounds using UHPLC.

[5] = molecular target: T2, LdMetRS (Leishmania donovani, UniProt A0A3Q8IBX2); assay: LdMetRS mode of inhibition studies; format: biochemical; details: for Ki / h (inhibitor Hill slope) / β (fraction of activity remaining) / Vmax / n (substrate Hill slope) / Ks: LdMetRS; for Ki: fit to eq 7, ± SE of fit; for h (inhibitor Hill slope) / β (fraction of activity remaining) / Vmax / n (substrate Hill slope) / Ks / mode of inhibition, LdMetRS: eq 7; for Vmax: global fit parameter; for n (substrate Hill slope) / Ks: global fit; for Ks: substrate dissociation constant; for mode of inhibition, LdMetRS: best fit by F-test
T2 sequence (A0A3Q8IBX2 entry or part of it): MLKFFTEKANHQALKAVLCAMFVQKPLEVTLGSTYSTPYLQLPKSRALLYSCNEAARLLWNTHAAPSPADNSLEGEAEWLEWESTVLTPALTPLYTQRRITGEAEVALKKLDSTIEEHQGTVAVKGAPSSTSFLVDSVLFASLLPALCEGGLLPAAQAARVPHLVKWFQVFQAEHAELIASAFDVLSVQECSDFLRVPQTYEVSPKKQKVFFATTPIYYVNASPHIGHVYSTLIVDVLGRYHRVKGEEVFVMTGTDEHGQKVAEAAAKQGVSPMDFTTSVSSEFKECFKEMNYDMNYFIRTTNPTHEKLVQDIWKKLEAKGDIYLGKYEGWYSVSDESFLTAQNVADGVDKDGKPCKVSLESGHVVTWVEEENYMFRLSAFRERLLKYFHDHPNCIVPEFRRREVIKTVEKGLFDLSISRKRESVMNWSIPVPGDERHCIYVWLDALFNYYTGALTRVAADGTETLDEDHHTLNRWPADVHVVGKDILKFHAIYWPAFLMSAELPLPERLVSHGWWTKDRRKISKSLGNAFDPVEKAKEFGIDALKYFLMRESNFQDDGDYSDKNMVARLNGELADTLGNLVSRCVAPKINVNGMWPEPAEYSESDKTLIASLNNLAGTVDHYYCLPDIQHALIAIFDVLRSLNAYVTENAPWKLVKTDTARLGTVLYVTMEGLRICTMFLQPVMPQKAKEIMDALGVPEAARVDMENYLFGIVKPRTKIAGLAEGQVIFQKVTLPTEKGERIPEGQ
From the text: Subsequent full mode of inhibition studies with compounds from the MetRS02 series were more challenging due to the partial inhibition profiles of some compounds resulting in poor global fits to the standard competitive, uncompetitive, and noncompetitive inhibition models (eqs 3, 4, and 5, respectively). In addition, during the enzymatic characterization of methionine binding to LdMetRS, a Hill slope of <1 was obtained (and was hypothesized to be due to conformational selection).[6] This low Hill slope is also not factored into the standard inhibition models described (eqs 3–5). New models with additional parameters to account for the partial inhibition and low methionine Hill slope were therefore required (eqs 6 and 7). Using these modified equations, the mode of inhibition of compound 27 was carried out by testing LdMetRS enzyme activity under varying substrate concentrations at various inhibitor concentrations (Figure 5). The cooperative, noncompetitive, partial inhibition model (eq 7) was confirmed as the best fit (using F-test analyses), with a noncompetitive mode of inhibition consistent with binding in an allosteric binding pocket. The returned fit parameters are shown in Table 4 and are presented with the standard error (SE) of the fit to eq 7.
as §1, §2, §3, §4

[6] = molecular target: T2, LdMetRS; assay: LdMetRS BIOMOL Green biochemical assay, 10-point dose response; details: for Emax: read-out: LdMetRS Maximum % Inhibition Plateau
[7] = molecular target: T2, LdMetRS; details: read-out: LdMetRS Km app; cited from earlier work
[8] = molecular target: T1, TcMetRS; assay: TcMetRS kinetic parameter determinations (Km app); format: biochemical
Experimental: (§5) The activity of the TcMetRS enzyme was determined by monitoring levels of pyrophosphate released during the first step of the enzymatic reaction. The pyrophosphate formed was converted to two inorganic phosphate molecules using a pyrophosphatase enzyme, and levels of the resulting phosphate molecules were measured using the BIOMOL Green reagent (Enzo Life Sciences).
(§6) TcMetRS assays were carried out using 384-well, clear, flat-bottomed plates (Greiner) at room temperature (∼23 °C) in 50 μL reaction volumes of assay buffer (30 mM Tris, pH 8.0, 140 mM NaCl, 30 mM KCl, 40 mM MgCl2, 0.01% (v/v) Brij-35, 1 mM DTT) plus 1 U/mL pyrophosphatase and varying concentrations of enzyme and substrates. Enzyme linearity was assessed in a 90 min end-point assay with varying TcMetRS concentrations (0–320 nM), 50 μM L-methionine, and 100 μM ATP. Reactions were stopped with the addition of 50 μL of BIOMOL Green reagent, with the signal allowed to develop for 30 min before the absorbance of each well was read at 650 nm (A650) using a PheraStar plate reader (BMG).
(§7) Apparent Michaelis constants (Km^app) for the L-methionine and ATP substrates were determined in end-point assays using the above buffer conditions and 80 nM recombinant TcMetRS. […] To determine the ATP Km^app, various ATP concentrations were tested in the presence of a fixed, saturating concentration of L-methionine (3 mM). […]

[9] = substrate: CSCC[C@H](N)C(=O)O; assay: TcMetRS kinetic parameter determinations (Km app); format: biochemical, Trypanosoma cruzi; details: other: saturating 350 μM ATP; N = 3; pH 8.0; 23.0 °C
Experimental: as §5, §6, §7

[10] = LdMetRS pIC50, 50 μM methionine, 100 μM ATP, 50 nM LdMetRS, pIC50 = −log IC50 (M)

| Molecule | chromatographic logD [1] | IC50 [3] | solubility at 24 h [4] | Ki ([5]; varied substrate ATP) | Ki ([5]; varied substrate methionine) | h (inhibitor Hill slope) ([5]; substrate ATP) | β (fraction of activity remaining) ([5]; substrate ATP) | Vmax ([5]; substrate ATP) | n (substrate Hill slope) ([5]; substrate ATP) | Ks ([5]; substrate ATP) | h (inhibitor Hill slope) ([5]; substrate methionine) | β (fraction of activity remaining) ([5]; substrate methionine) | Vmax ([5]; substrate methionine) | n (substrate Hill slope) ([5]; substrate methionine) | Ks ([5]; substrate methionine) | mode of inhibition, LdMetRS [5] | IC50 [6, 10] | Emax [6] | Km [7] | further results |
| --- | --- | --- | --- | --- | --- | --- | --- | --- | --- | --- | --- | --- | --- | --- | --- | --- | --- | --- | --- | --- |
| COC(=O)CNc1nc(Nc2ccc(F)c(F)c2)nc2c1cnn2C [Compound 27] | 2.17 | > 100 µM | 5.5 µM (≈ 1.92 µg/mL) | 1.58 ± 0.04 µM | 2.06 ± 0.04 µM | 1.10 ± 0.02 | 0.027 ± 0.005 | 0.324 ± 0.004 μM Piformed/min | 1.07 ± 0.02 ^b | 21.1 ± 0.6 µM | 1.05 ± 0.02 | 0.060 ± 0.005 | 0.388 ± 0.009 μM Piformed/min | 0.50 ± 0.01 | 327 ± 35 µM | noncompetitive | 1.26e-06 M | 92.9% | – | fold difference in Ki, TcMetRS versus LdMetRS ([2]; Ki from mode of inhibition studies, Table 4): 5–7 fold; Ki ([2]; Ki, varied substrate ATP): 11.3 ± 1.2 µM; Ki ([2]; Ki, varied substrate methionine): 10.8 ± 0.7 µM; h (inhibitor Hill slope) ([2]; substrate ATP, eq 7): 1.27 ± 0.14; β (fraction of activity remaining) ([2]; substrate ATP, eq 7): 0.48 ± 0.02; Vmax ([2]; substrate ATP, eq 7): 0.287 ± 0.006 μM Piformed/min; n (substrate Hill slope) ([2]; substrate ATP, eq 7): 1.07 ± 0.03 ^b; Ks ([2]; substrate ATP, eq 7): 40.5 ± 2.0 µM; h (inhibitor Hill slope) ([2]; substrate methionine, eq 7): 1.48 ± 0.11; β (fraction of activity remaining) ([2]; substrate methionine, eq 7): 0.65 ± 0.01; Vmax ([2]; substrate methionine, eq 7): 0.429 ± 0.016 μM Piformed/min; n (substrate Hill slope) ([2]; substrate methionine, eq 7): 0.42 ± 0.01; Ks ([2]; substrate methionine, eq 7): 1340 ± 237 µM; mode of inhibition, TcMetRS ([2]; best fit, eq 7): noncompetitive; Emax ([3]; read-out: TcMetRS Maximum % Inhibition): 44.2 ± 6.5%; IC50 ([6]; LdMetRS pIC50, 50 µM ATP and 50 µM methionine): 1.41e-06 M; IC50 ([6]; LdMetRS pIC50, both substrate concentrations increased to 500 µM): 1.41e-06 M; IC50 shift on increasing substrate concentrations ([6]; methionine and ATP increased from 50 μM each to 500 μM, preliminary data): no IC50 shifts |
| Nc1ncnc2c1ncn2[C@@H]1O[C@H](COP(=O)(O)OP(=O)(O)OP(=O)(O)O)[C@@H](O)[C@H]1O [ATP] | – | – | – | – | – | – | – | – | – | – | – | – | – | – | – | – | – | – | 37 µM | substrate inhibition constant ([8]; ATP, 3 mM methionine): 2080 µM; Km ([8]; saturating 3 mM methionine, N = 3, read-out: TcMetRS apparent Michaelis constant (Km app) for ATP): 63 µM |
| CN(C)c1nc(Nc2ccc(F)c(F)c2)nc2c1cnn2C [Compound 19] | 2.88 | > 100 µM | 4.8 µM (≈ 1.46 µg/mL) | 1.21 ± 0.06 µM | 1.22 ± 0.06 µM | 1.75 ± 0.12 | 0.55 ± 0.01 | 0.292 ± 0.004 μM Piformed/min | 1.03 ± 0.03 ^b | 21.0 ± 0.74 µM | 1.65 ± 0.11 | 0.57 ± 0.01 | 0.359 ± 0.009 μM Piformed/min | 0.53 ± 0.02 | 313 ± 35 µM | noncompetitive | 1e-06 M | 48.9% | – | Ki ([2]; varied substrate ATP): inactive; Ki ([2]; varied substrate methionine): inactive |
| CSCC[C@H](N)C(=O)O [methionine] | – | – | – | – | – | – | – | – | – | – | – | – | – | – | – | – | – | – | 173 µM | – |
| TcMetRS (Trypanosoma cruzi strain CL Brener) (protein) MSLKLFSEKANTQALKALLCCHHVKRPVELTLSGAYTSPVLHHPALKQPIFSANEMVRLILHDKWRDDSAGGSGGKKTGCYDGHWASVSLEEEAWLEWEATTFTCAVHPLYTQRRVTPEAAGAFEYLDNKIHENDCRGPCLAPVGEKGTSTKSPSFLVDCIIWCAVLPALCEGGLLGEKEREKLPHLLKWFESFQSAREAHIAGAVESLAVQEFADFLRAPRVYKLSPKISKVFFITTPIYYVNAAPHIGHVYSTLIVDVIGRYHTMKGERVFAMSGTDEHGQKVAEAARQKGMNPYDFTCQVSREFIDCFEQMGYHMDYFIRTTNESHKKVVHELWSKLEAKGDIYLGRYEGWYSVSDESFLTAQNVTDGVDKDGKPCKVSLESGHVVTWLAEDNYMFRLSAFRERLLEWYNNNPGCIVPEFRRREVIRTVEKGLNDLSVSRTREAVQDWAIPVPGNPNHCIYVWLDALSNYYTASRLRLGKSGEELELVEDHRVLERFPADIHVIGKDILKFHAIYWPAFLISAGLPLPKTIVAHGWWTKDRKKISKSLGNVFDPVEKAREFGFDALKYFLLRETGFSDDGDYSDRNMISRLNGELADTLGNLVMRCTSAKINVHRVWPTPDAYNAKDEALIQLIKDLPGVVDHFFLIPDVQKALAAVFDLLRAINSYVTENAPWRLVKTDPDRLRTVLYITMEGTRLATLMLSPVLSQKAPVIFDMLGVPEANRVGVENFGFGVVPSGTSIGDAVEGKVLFPKISLDKAQSA | – | – | – | – | – | – | – | – | – | – | – | – | – | – | – | – | – | – | – | Km [9]: 212 µM |
